# Laboratory results taken from ChEMBL document CHEMBL4813981, “Synthesis and in vitro antibacterial activity of new aminothiazole-oximepiperidone cephalosporins” (2021).
# Legend:
# Format in all cases: functional
# Klebsiella pneumoniae [1] = test: Antibacterial activity against Multidrug resistant Klebsiella pneumoniae KR 15-2 assessed as reduction in bacterial growth
# Escherichia coli [2] = test: Antibacterial activity against Escherichia coli 15-3 overexpressing extended spectrum beta-lactamases assessed as reduction in bacterial growth
# Klebsiella pneumoniae [3] = test: Antibacterial activity against Klebsiella pneumoniae ATCC 700603 assessed as reduction in bacterial growth
# Acinetobacter baumannii [4] = test: Antibacterial activity against Acinetobacter baumannii NCTC 13304 assessed as reduction in bacterial growth
# Klebsiella pneumoniae [5] = test: Antibacterial activity against Klebsiella pneumoniae ATCC BAA-1705 assessed as reduction in bacterial growth
# Enterococcus faecalis [6] = test: Antibacterial activity against Enterococcus faecalis ATCC 51299 assessed as reduction in bacterial growth
# Acinetobacter baumannii [7] = test: Antibacterial activity against Multidrug resistant Acinetobacter baumannii AR 15-3 assessed as reduction in bacterial growth
# Escherichia coli [8] = test: Antibacterial activity against Escherichia coli 15-4 overexpressing extended spectrum beta-lactamases assessed as reduction in bacterial growth
# Klebsiella pneumoniae [9] = test: Antibacterial activity against Multidrug resistant Klebsiella pneumoniae KR 15-3 assessed as reduction in bacterial growth
# Pseudomonas aeruginosa [10] = test: Antibacterial activity against Pseudomonas aeruginosa ATCC 27853 assessed as reduction in bacterial growth
# Acinetobacter baumannii [11] = test: Antibacterial activity against Multidrug resistant Acinetobacter baumannii AR 15-2 assessed as reduction in bacterial growth
# Klebsiella pneumoniae [12] = test: Antibacterial activity against Multidrug resistant Klebsiella pneumoniae KR 15-1 assessed as reduction in bacterial growth
# Escherichia coli [13] = test: Antibacterial activity against Escherichia coli NCTC 13353 assessed as reduction in bacterial growth
# Escherichia coli [14] = test: Antibacterial activity against Escherichia coli ATCC 25922 assessed as reduction in bacterial growth
# Escherichia coli [15] = test: Antibacterial activity against Escherichia coli ATCC 35218 assessed as reduction in bacterial growth
# Escherichia coli [16] = test: Antibacterial activity against Escherichia coli 15-5 overexpressing extended spectrum beta-lactamases assessed as reduction in bacterial growth
# Acinetobacter baumannii [17] = test: Antibacterial activity against Multidrug resistant Acinetobacter baumannii AR 15-4 assessed as reduction in bacterial growth
# Klebsiella pneumoniae [18] = test: Antibacterial activity against Klebsiella pneumoniae ATCC 700603 assessed as reduction in bacterial growth in the presence of Avibactam
# Acinetobacter baumannii [19] = test: Antibacterial activity against Multidrug resistant Acinetobacter baumannii AR 15-3 assessed as reduction in bacterial growth in the presence of Avibactam
# Enterococcus faecalis [20] = test: Antibacterial activity against Enterococcus faecalis ATCC 51299 assessed as reduction in bacterial growth in the presence of Avibactam
# Klebsiella pneumoniae [21] = test: Antibacterial activity against Multidrug resistant Klebsiella pneumoniae KR 15-2 assessed as reduction in bacterial growth in the presence of Avibactam
# Klebsiella pneumoniae [22] = test: Antibacterial activity against Multidrug resistant Klebsiella pneumoniae KR 15-1 assessed as reduction in bacterial growth in the presence of Avibactam
# Pseudomonas aeruginosa [23] = test: Antibacterial activity against Pseudomonas aeruginosa ATCC 27853 assessed as reduction in bacterial growth in the presence of Avibactam
# Klebsiella pneumoniae [24] = test: Antibacterial activity against Multidrug resistant Klebsiella pneumoniae KR 15-3 assessed as reduction in bacterial growth in the presence of Avibactam
# Acinetobacter baumannii [25] = test: Antibacterial activity against Multidrug resistant Acinetobacter baumannii AR 15-4 assessed as reduction in bacterial growth in the presence of Avibactam
# Escherichia coli [26] = test: Antibacterial activity against Escherichia coli ATCC 35218 assessed as reduction in bacterial growth in the presence of Avibactam
# Acinetobacter baumannii [27] = test: Antibacterial activity against Multidrug resistant Acinetobacter baumannii AR 15-2 assessed as reduction in bacterial growth in the presence of Avibactam
# Escherichia coli [28] = test: Antibacterial activity against Escherichia coli 15-4 overexpressing extended spectrum beta-lactamases assessed as reduction in bacterial growth in the presence of Avibactam
# Klebsiella pneumoniae [29] = test: Antibacterial activity against Klebsiella pneumoniae ATCC BAA-1705 assessed as reduction in bacterial growth in the presence of Avibactam
# Escherichia coli [30] = test: Antibacterial activity against Escherichia coli NCTC 13353 assessed as reduction in bacterial growth in the presence of Avibactam
# Acinetobacter baumannii [31] = test: Antibacterial activity against Acinetobacter baumannii NCTC 13304 assessed as reduction in bacterial growth in the presence of Avibactam
# Escherichia coli [32] = test: Antibacterial activity against Escherichia coli 15-5 overexpressing extended spectrum beta-lactamases assessed as reduction in bacterial growth in the presence of Avibactam
# Escherichia coli [33] = test: Antibacterial activity against Escherichia coli 15-3 overexpressing extended spectrum beta-lactamases assessed as reduction in bacterial growth in the presence of Avibactam
# Escherichia coli [34] = test: Antibacterial activity against Escherichia coli ATCC 25922 assessed as reduction in bacterial growth in the presence of Avibactam
SMILES,MIC (Klebsiella pneumoniae [1]),MIC (Escherichia coli [2]),MIC (Klebsiella pneumoniae [3]),MIC (Acinetobacter baumannii [4]),MIC (Klebsiella pneumoniae [5]),MIC (Enterococcus faecalis [6]),MIC (Acinetobacter baumannii [7]),MIC (Escherichia coli [8]),MIC (Klebsiella pneumoniae [9]),MIC (Pseudomonas aeruginosa [10]),MIC (Acinetobacter baumannii [11]),MIC (Klebsiella pneumoniae [12]),MIC (Escherichia coli [13]),MIC (Escherichia coli [14]),MIC (Escherichia coli [15]),MIC (Escherichia coli [16]),MIC (Acinetobacter baumannii [17]),further results
C/C=C/C1=C(C(=O)O)N2C(=O)[C@@H](NC(=O)/C(=N\OCc3cc(=O)c(O)cn3O)c3csc(N)n3)[C@H]2SC1,> 64 µg/mL,> 64 µg/mL,64 µg/mL,> 64 µg/mL,64 µg/mL,> 64 µg/mL,> 64 µg/mL,> 64 µg/mL,> 64 µg/mL,16 µg/mL,> 64 µg/mL,> 64 µg/mL,> 64 µg/mL,1 µg/mL,1 µg/mL,> 64 µg/mL,> 64 µg/mL,
COCC1=C(C(=O)O)N2C(=O)[C@@H](NC(=O)/C(=N\OCc3cc(=O)c(O)cn3O)c3csc(N)n3)[C@H]2SC1,> 64 µg/mL,> 64 µg/mL,64 µg/mL,> 64 µg/mL,> 64 µg/mL,> 64 µg/mL,> 64 µg/mL,> 64 µg/mL,> 64 µg/mL,2 µg/mL,> 64 µg/mL,> 64 µg/mL,> 64 µg/mL,2 µg/mL,0.25 µg/mL,> 64 µg/mL,> 64 µg/mL,
Nc1nc(/C(=N/OCc2cc(=O)c(O)cn2O)C(=O)N[C@@H]2C(=O)N3C(C(=O)O)=C(Cl)CS[C@H]23)cs1,> 64 µg/mL,> 64 µg/mL,> 64 µg/mL,> 64 µg/mL,> 64 µg/mL,> 64 µg/mL,> 64 µg/mL,> 64 µg/mL,> 64 µg/mL,4 µg/mL,> 64 µg/mL,> 64 µg/mL,> 64 µg/mL,2 µg/mL,0.5 µg/mL,> 64 µg/mL,> 64 µg/mL,MIC (Klebsiella pneumoniae [18]): > 64 µg/mL; MIC (Acinetobacter baumannii [19]): 8 µg/mL; MIC (Enterococcus faecalis [20]): > 64 µg/mL; MIC (Klebsiella pneumoniae [21]): 1 µg/mL; MIC (Klebsiella pneumoniae [22]): 2 µg/mL; MIC (Pseudomonas aeruginosa [23]): 1 µg/mL; MIC (Klebsiella pneumoniae [24]): 1 µg/mL; MIC (Acinetobacter baumannii [25]): 8 µg/mL; MIC (Escherichia coli [26]): 0.125 µg/mL; MIC (Acinetobacter baumannii [27]): 16 µg/mL; MIC (Escherichia coli [28]): 1 µg/mL; MIC (Klebsiella pneumoniae [29]): 8 µg/mL; MIC (Escherichia coli [30]): 1 µg/mL; MIC (Acinetobacter baumannii [31]): 32 µg/mL; MIC (Escherichia coli [32]): 0.5 µg/mL; MIC (Escherichia coli [33]): 1 µg/mL; MIC (Escherichia coli [34]): 0.125 µg/mL
